Measurements: patent US8354398B2, “Substituted isoxazole compounds” (Bristol-Myers Squibb Company, priority 2009, dated 2013)

What was measured:
S1P1 [1] = target: T1, S1P1 (Homo sapiens, UniProt P21453); assay: Method B: Receptor [35S] GTPγS SPA Binding Assay, membranes from S1P1 transfected CHO cells; assay type: biochemical; parameters: expressed in transfected cells; host or cells: S1P1/CHO cells
Method in brief: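 CHO-cell membranes (2 μg protein) with test compound, 5 μM GDP, saponin and WGA-PVT SPA beads, pH 7.4; reaction started with 0.2 nM [35S]-GTPγS, 90 min at room temperature. Bound counts expressed as % of 1 μM S1P response, EC50 from four-parameter logistic fit; no curves where Ymax below 50%.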

S1P3 = S1P3 (Homo sapiens, UniProt Q99500); assay: Method A: Receptor [35S] GTPγS Binding Assay, membranes from EDG3-Ga15-bla HEK293T cells; assay type: biochemical; parameters: expressed in transfected cells; host or cells: EDG3-Ga15-bla HEK293T cells; settings: EDG3-Ga15-bla HEK293T cell membranes
Method in brief: (§1)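 Membranes ([…]) incubated 45 min at room temperature with 3-fold compound dilutions and 0.2 nM final [35S]GTPγS in HEPES pH 7.5 buffer containing 10 μM GDP, MgCl2, EGTA, DTT, BSA and saponin. Bound label collected by filtration and scintillation counting; EC50 taken at 50% of each compound's Ymax.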

[2] = test system: experimental autoimmune encephalomyelitis (clinical score); assay: Mouse Experimental Autoimmune Encephalomyelitis Assay (EAE); assay type: in vivo, C57BL/6 mice; settings: for Clinical Score on day 21, Mean: C57BL/6 female mice, vehicle mean 2.79
S1P1 [3] = target: T1, S1P1; assay: Method A: Receptor [35S] GTPγS Binding Assay, membranes from S1P1/CHO cells; assay type: biochemical; parameters: expressed in transfected cells; host or cells: S1P1/CHO cells
Method in brief: as §1

T1 sequence (P21453 whole entry): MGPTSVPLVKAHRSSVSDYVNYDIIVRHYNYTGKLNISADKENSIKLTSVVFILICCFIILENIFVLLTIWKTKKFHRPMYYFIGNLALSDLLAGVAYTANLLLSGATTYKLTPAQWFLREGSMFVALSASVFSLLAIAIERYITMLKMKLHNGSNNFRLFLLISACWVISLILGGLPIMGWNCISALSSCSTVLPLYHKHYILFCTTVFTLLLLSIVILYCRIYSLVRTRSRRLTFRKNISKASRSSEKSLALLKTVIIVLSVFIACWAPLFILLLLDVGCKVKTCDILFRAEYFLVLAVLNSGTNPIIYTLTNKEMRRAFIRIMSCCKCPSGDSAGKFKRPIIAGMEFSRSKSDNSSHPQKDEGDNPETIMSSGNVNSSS
Sequence of S1P3 (Q99500 whole entry): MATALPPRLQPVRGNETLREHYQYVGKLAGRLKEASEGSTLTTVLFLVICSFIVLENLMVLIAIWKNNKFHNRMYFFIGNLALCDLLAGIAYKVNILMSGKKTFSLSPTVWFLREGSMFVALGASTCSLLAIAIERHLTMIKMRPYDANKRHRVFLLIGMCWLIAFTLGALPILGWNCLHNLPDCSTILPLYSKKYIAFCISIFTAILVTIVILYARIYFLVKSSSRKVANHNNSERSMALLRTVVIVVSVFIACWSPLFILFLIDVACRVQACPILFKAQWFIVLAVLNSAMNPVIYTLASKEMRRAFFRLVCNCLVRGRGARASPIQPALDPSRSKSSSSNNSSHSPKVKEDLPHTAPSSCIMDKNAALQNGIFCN

EC50 (S1P1 [1]; Method B SPA, S1P1 transfected CHO cell membranes, NC = a satisfactory dose response curve was not obtained): 0.048 nM
GTPγS S1P3/S1P1 (Method B) (S1P1 [1]; ratio of GTPγS S1P3 EC50 to GTPγS S1P1 EC50, Method B): 11,000
EC50 (S1P3): 940 nM
EC50 (S1P1 [3]; Method A, S1P1/CHO cell membranes): 0.68 nM
GTPγS S1P3/S1P1 (Method A) (S1P1 [3]; ratio of GTPγS S1P3 EC50 to GTPγS S1P1 EC50, Method A): 1,400
Compound: O=C(O)C1CN(Cc2ccc(-c3noc(-c4onc(-c5ccccc5)c4C(F)(F)F)n3)cc2)C1 [Example 1, 1-(4-(5-(3-Phenyl-4-(trifluoromethyl)isoxazol-5-yl)-1,2,4-oxadiazol-3-yl)benzyl)azetidine-3-carboxylic acid]
Clinical Score on day 21, Mean ([2]; 0.02 mg/kg once daily from 1 day after immunization): 1.75
Clinical Score on day 21, Mean ([2]; 0.2 mg/kg once daily from 1 day after immunization): 1.13
Clinical Score on day 21, Mean ([2]; 2.0 mg/kg once daily from 1 day after immunization): 1.15
disease progression as determined by the clinical scores ([2]; C57Bl/6 mice, prophylactic oral dosing): inhibits disease progression
